Assay results as given in PMC5298231, “The Malaria Parasite's Lactate Transporter PfFNT Is the Target of Antiplasmodial Compounds Identified in Whole Cell Phenotypic Screens” (PLoS Pathogens, 2017).
Peptide text beside a SMILES is read from it.

System: erythrocytes infected with 3D7 trophozoites
Format: cell-based, Plasmodium falciparum
Settings: sheet Ratio; for Ratio of metabolite abundance, Exp1_1hr: Exp1, 1hr; for Ratio of metabolite abundance, Exp1_3hr: Exp1, 3hr; for Ratio of metabolite abundance, Exp1_6hr: Exp1, 6hr; for Ratio of metabolite abundance, Exp2_1hr: Exp2, 1hr; for Ratio of metabolite abundance, Exp2_3hr: Exp2, 3hr; for Ratio of metabolite abundance, Exp2_6hr: Exp2, 6hr; for Ratio of metabolite abundance, Exp3_1hr: Exp3, 1hr; for Ratio of metabolite abundance, Exp3_3hr: Exp3, 3hr; for Ratio of metabolite abundance, Exp3_6hr: Exp3, 6hr

CC(C)C[C@H](NC(=O)[C@H](C)NC(=O)[C@@H](N)CC(=O)O)C(=O)N[C@H](C(=O)O)[C@@H](C)O [DALT] (H-DALT-OH)
Ratio of metabolite abundance, Exp1_1hr: 0.634
Ratio of metabolite abundance, Exp1_3hr: 0.4153
Ratio of metabolite abundance, Exp1_6hr: 1.635
Ratio of metabolite abundance, Exp2_1hr: 0.755
Ratio of metabolite abundance, Exp2_3hr: 0.5469
Ratio of metabolite abundance, Exp2_6hr: 1.439
Ratio of metabolite abundance, Exp3_1hr: 0.7343
Ratio of metabolite abundance, Exp3_3hr: 0.6802
Ratio of metabolite abundance, Exp3_6hr: 1.903

CC(C)[C@H](NC(=O)[C@H](CCC(=O)O)NC(=O)[C@@H](N)CC(=O)O)C(=O)NCC(=O)O [DEVG] (H-DEVG-OH)
Ratio of metabolite abundance, Exp1_1hr: 1.013
Ratio of metabolite abundance, Exp1_3hr: 0.6309
Ratio of metabolite abundance, Exp1_6hr: 0.8753
Ratio of metabolite abundance, Exp2_1hr: 0.8701
Ratio of metabolite abundance, Exp2_3hr: 1.059
Ratio of metabolite abundance, Exp2_6hr: 1.02
Ratio of metabolite abundance, Exp3_1hr: 1.139
Ratio of metabolite abundance, Exp3_3hr: 1.261
Ratio of metabolite abundance, Exp3_6hr: 0.9839

CCCCC/C=C\C/C=C\C/C=C\CCCCCCC(=O)O [DGLA]
Ratio of metabolite abundance, Exp1_1hr: 0.6512
Ratio of metabolite abundance, Exp1_3hr: 0.4296
Ratio of metabolite abundance, Exp1_6hr: 1.744
Ratio of metabolite abundance, Exp2_1hr: 0.832
Ratio of metabolite abundance, Exp2_3hr: 0.6938
Ratio of metabolite abundance, Exp2_6hr: 1.456
Ratio of metabolite abundance, Exp3_1hr: 0.7202
Ratio of metabolite abundance, Exp3_3hr: 0.7277
Ratio of metabolite abundance, Exp3_6hr: 2.242

CC(C)C[C@H](NC(=O)[C@@H](N)CC(=O)O)C(=O)N[C@@H](CO)C(=O)O [DLS] (H-Asp-Leu-Ser-OH)
Ratio of metabolite abundance, Exp1_1hr: 0.4981
Ratio of metabolite abundance, Exp1_3hr: 0.5494
Ratio of metabolite abundance, Exp1_6hr: 0.8725
Ratio of metabolite abundance, Exp2_1hr: 0.8907
Ratio of metabolite abundance, Exp2_3hr: 0.8658
Ratio of metabolite abundance, Exp2_6hr: 1.124
Ratio of metabolite abundance, Exp3_1hr: 0.9354
Ratio of metabolite abundance, Exp3_3hr: 0.5821
Ratio of metabolite abundance, Exp3_6hr: 0.7887

O=C1CC(C(=O)O)NC(=O)N1 (stereo not drawn) [Dihydroorotate]
Ratio of metabolite abundance, Exp1_1hr: 0.7855
Ratio of metabolite abundance, Exp1_3hr: 0.5689
Ratio of metabolite abundance, Exp1_6hr: 0.4919
Ratio of metabolite abundance, Exp2_1hr: 0.9051
Ratio of metabolite abundance, Exp2_3hr: 0.4712
Ratio of metabolite abundance, Exp2_6hr: 0.6702
Ratio of metabolite abundance, Exp3_1hr: 0.4693
Ratio of metabolite abundance, Exp3_3hr: 0.4085
Ratio of metabolite abundance, Exp3_6hr: 0.3763

N[C@@H](CCC(=O)O)C(=O)N[C@@H](CO)C(=O)N[C@@H](Cc1ccccc1)C(=O)NCC(=O)O [ESFG] (H-ESFG-OH)
Ratio of metabolite abundance, Exp1_1hr: 1.207
Ratio of metabolite abundance, Exp1_3hr: 0.8233
Ratio of metabolite abundance, Exp1_6hr: 1.441
Ratio of metabolite abundance, Exp2_1hr: 1.518
Ratio of metabolite abundance, Exp2_3hr: 1.053
Ratio of metabolite abundance, Exp2_6hr: 1.4585
Ratio of metabolite abundance, Exp3_1hr: 1.266
Ratio of metabolite abundance, Exp3_3hr: 0.9822
Ratio of metabolite abundance, Exp3_6hr: 1.358

CC(C)[C@H](NC(=O)[C@@H](N)CCC(=O)O)C(=O)NCC(=O)NCC(=O)O [EVGG] (H-EVGG-OH)
Ratio of metabolite abundance, Exp1_1hr: 1.013
Ratio of metabolite abundance, Exp1_3hr: 0.7941
Ratio of metabolite abundance, Exp1_6hr: 0.8262
Ratio of metabolite abundance, Exp2_1hr: 1.036
Ratio of metabolite abundance, Exp2_3hr: 0.9151
Ratio of metabolite abundance, Exp2_6hr: 0.9384
Ratio of metabolite abundance, Exp3_1hr: 0.988
Ratio of metabolite abundance, Exp3_3hr: 0.9676
Ratio of metabolite abundance, Exp3_6hr: 0.8158

O=C[C@H](O)[C@H](O)COP(=O)(O)O [Erythrose 4-phosphate]
Ratio of metabolite abundance, Exp1_1hr: 0.8874
Ratio of metabolite abundance, Exp1_3hr: 1.021
Ratio of metabolite abundance, Exp1_6hr: 0.7492
Ratio of metabolite abundance, Exp2_1hr: 0.7497
Ratio of metabolite abundance, Exp2_3hr: 0.9809
Ratio of metabolite abundance, Exp2_6hr: 0.8462
Ratio of metabolite abundance, Exp3_1hr: 0.7238
Ratio of metabolite abundance, Exp3_3hr: 0.584
Ratio of metabolite abundance, Exp3_6hr: 0.3651

Cc1cc2nc3c(=O)[nH]c(=O)nc-3n(C[C@H](O)[C@H](O)[C@H](O)COP(=O)(O)OP(=O)(O)OC[C@H]3O[C@@H](n4cnc5c(N)ncnc54)[C@H](O)[C@@H]3O)c2cc1C [FAD]
Ratio of metabolite abundance, Exp1_1hr: 0.999
Ratio of metabolite abundance, Exp1_3hr: 0.6842
Ratio of metabolite abundance, Exp1_6hr: 0.7003
Ratio of metabolite abundance, Exp2_1hr: 0.9752
Ratio of metabolite abundance, Exp2_3hr: 0.8156
Ratio of metabolite abundance, Exp2_6hr: 0.7377
Ratio of metabolite abundance, Exp3_1hr: 0.855
Ratio of metabolite abundance, Exp3_3hr: 0.7422
Ratio of metabolite abundance, Exp3_6hr: 0.5377

Cc1cc2nc3c(=O)[nH]c(=O)nc-3n(C[C@H](O)[C@H](O)[C@H](O)COP(=O)(O)O)c2cc1C [FMN]
Ratio of metabolite abundance, Exp1_1hr: 0.8812
Ratio of metabolite abundance, Exp1_3hr: 0.6056
Ratio of metabolite abundance, Exp1_6hr: 0.6532
Ratio of metabolite abundance, Exp2_1hr: 1.341
Ratio of metabolite abundance, Exp2_3hr: 1.123
Ratio of metabolite abundance, Exp2_6hr: 0.8423
Ratio of metabolite abundance, Exp3_1hr: 0.5112
Ratio of metabolite abundance, Exp3_3hr: 0.5214
Ratio of metabolite abundance, Exp3_6hr: 0.5073

O=P(O)(O)OC[C@H]1O[C@](O)(COP(=O)(O)O)[C@@H](O)[C@@H]1O [Fructose-1-6-bisphosphate]
Ratio of metabolite abundance, Exp1_1hr: 2.629
Ratio of metabolite abundance, Exp1_3hr: 3.883
Ratio of metabolite abundance, Exp1_6hr: 1.856
Ratio of metabolite abundance, Exp2_1hr: 2.007
Ratio of metabolite abundance, Exp2_3hr: 1.872
Ratio of metabolite abundance, Exp2_6hr: 1.498
Ratio of metabolite abundance, Exp3_1hr: 1.953
Ratio of metabolite abundance, Exp3_3hr: 1.49
Ratio of metabolite abundance, Exp3_6hr: 0.822

O=P(O)(O)OC[C@H]1OC(O)(CO)[C@@H](O)[C@@H]1O (stereo partly drawn) [Fructose-6-Phosphate]
Ratio of metabolite abundance, Exp1_1hr: 1.008
Ratio of metabolite abundance, Exp1_3hr: 1.026
Ratio of metabolite abundance, Exp1_6hr: 1.013
Ratio of metabolite abundance, Exp2_1hr: 1.111
Ratio of metabolite abundance, Exp2_3hr: 1.041
Ratio of metabolite abundance, Exp2_6hr: 0.9386
Ratio of metabolite abundance, Exp3_1hr: 1.073
Ratio of metabolite abundance, Exp3_3hr: 1.052
Ratio of metabolite abundance, Exp3_6hr: 0.8397

Nc1nc2c(ncn2[C@@H]2O[C@H](COP(=O)(O)OP(=O)(O)O[C@H]3O[C@H](CO)[C@@H](O)[C@H](O)[C@@H]3O)[C@@H](O)[C@H]2O)c(=O)[nH]1 [GDP-mannose]
Ratio of metabolite abundance, Exp1_1hr: 1.172
Ratio of metabolite abundance, Exp1_3hr: 0.7132
Ratio of metabolite abundance, Exp1_6hr: 0.4189
Ratio of metabolite abundance, Exp2_1hr: 0.9396
Ratio of metabolite abundance, Exp2_3hr: 0.7145
Ratio of metabolite abundance, Exp2_6hr: 0.4773
Ratio of metabolite abundance, Exp3_1hr: 0.9382
Ratio of metabolite abundance, Exp3_3hr: 0.7837
Ratio of metabolite abundance, Exp3_6hr: 0.5338

Nc1nc2c(ncn2[C@@H]2O[C@H](COP(=O)(O)OP(=O)(O)O)[C@@H](O)[C@H]2O)c(=O)[nH]1 [GDP]
Ratio of metabolite abundance, Exp1_1hr: 0.4319
Ratio of metabolite abundance, Exp1_3hr: 0.3131
Ratio of metabolite abundance, Exp1_6hr: 0.5082
Ratio of metabolite abundance, Exp2_1hr: 0.6304
Ratio of metabolite abundance, Exp2_3hr: 0.5095
Ratio of metabolite abundance, Exp2_6hr: 0.5364
Ratio of metabolite abundance, Exp3_1hr: 0.8846
Ratio of metabolite abundance, Exp3_3hr: 0.5153
Ratio of metabolite abundance, Exp3_6hr: 0.569

Nc1nc2c(ncn2[C@@H]2O[C@H](COP(=O)(O)O)[C@@H](O)[C@H]2O)c(=O)[nH]1 [GMP]
Ratio of metabolite abundance, Exp1_1hr: 0.2584
Ratio of metabolite abundance, Exp1_3hr: 0.2388
Ratio of metabolite abundance, Exp1_6hr: 0.4652
Ratio of metabolite abundance, Exp2_1hr: 0.6356
Ratio of metabolite abundance, Exp2_3hr: 0.2451
Ratio of metabolite abundance, Exp2_6hr: 0.4274
Ratio of metabolite abundance, Exp3_1hr: 0.5874
Ratio of metabolite abundance, Exp3_3hr: 0.5355
Ratio of metabolite abundance, Exp3_6hr: 0.8077

Nc1nc2c(ncn2[C@@H]2O[C@H](COP(=O)(O)OP(=O)(O)OP(=O)(O)O)[C@@H](O)[C@H]2O)c(=O)[nH]1 [GTP]
Ratio of metabolite abundance, Exp1_1hr: 0.6647
Ratio of metabolite abundance, Exp1_3hr: 0.5629
Ratio of metabolite abundance, Exp1_6hr: 0.5991
Ratio of metabolite abundance, Exp2_1hr: 0.6384
Ratio of metabolite abundance, Exp2_3hr: 0.6479
Ratio of metabolite abundance, Exp2_6hr: 0.6462
Ratio of metabolite abundance, Exp3_1hr: 0.7156
Ratio of metabolite abundance, Exp3_3hr: 0.6328
Ratio of metabolite abundance, Exp3_6hr: 0.6081

O=P(O)(O)OC[C@H]1OC(O)[C@H](O)[C@@H](O)[C@@H]1O (stereo partly drawn) [Glucose-6-Phosphate]
Ratio of metabolite abundance, Exp1_1hr: 0.8219
Ratio of metabolite abundance, Exp1_3hr: 0.7353
Ratio of metabolite abundance, Exp1_6hr: 0.7494
Ratio of metabolite abundance, Exp2_1hr: 0.9729
Ratio of metabolite abundance, Exp2_3hr: 0.8323
Ratio of metabolite abundance, Exp2_6hr: 0.7319
Ratio of metabolite abundance, Exp3_1hr: 0.8489
Ratio of metabolite abundance, Exp3_3hr: 0.791
Ratio of metabolite abundance, Exp3_6hr: 0.6337

N[C@@H](CCC(=O)O)C(=O)O [Glutamate]
Ratio of metabolite abundance, Exp1_1hr: 1.14
Ratio of metabolite abundance, Exp1_3hr: 0.9816
Ratio of metabolite abundance, Exp1_6hr: 0.9735
Ratio of metabolite abundance, Exp2_1hr: 1.0715
Ratio of metabolite abundance, Exp2_3hr: 0.9058
Ratio of metabolite abundance, Exp2_6hr: 0.8408
Ratio of metabolite abundance, Exp3_1hr: 1.009
Ratio of metabolite abundance, Exp3_3hr: 0.9619
Ratio of metabolite abundance, Exp3_6hr: 1.158

O=C[C@H](O)COP(=O)(O)O [Glyceraldehyde 3-phosphate]
Ratio of metabolite abundance, Exp1_1hr: 0.7448
Ratio of metabolite abundance, Exp1_3hr: 0.7431
Ratio of metabolite abundance, Exp1_6hr: 0.4349
Ratio of metabolite abundance, Exp2_1hr: 0.5818
Ratio of metabolite abundance, Exp2_3hr: 0.6033
Ratio of metabolite abundance, Exp2_6hr: 0.4986
Ratio of metabolite abundance, Exp3_1hr: 0.4745
Ratio of metabolite abundance, Exp3_3hr: 0.6544
Ratio of metabolite abundance, Exp3_6hr: 0.4238
